The source of these data is patent US6255323A, “Cyanoguanidine compounds” (Shionogi Bioresearch Corp., priority 2000, dated 2001).

For data set [1], the system named is Non-Hodgkin's B cell lymphoma (RL) tumor. The data set can be described thus: RL human tumor xenograft regression assay. The format is in vivo, human tumor in female NIH Swiss nude mice. The following applies: for average tumor volume, % of tumor volume obtained in the control: Day 21, 75 mg/kg; for gross toxicity: 2780 75, 2889 90, 2897 75, 2900 60, 2727 60 mg/kg (2727: reduced to once per day); for tumor regression: within the first two weeks of dosing, IV morning + IP afternoon, 2780 75, 2889 90, 2897 75, 2900 60, 2727 60 mg/kg. How it is done:
The antitumor activity of a cyanoguanidine compound of this invention can also be evaluated by in vivo testing, e.g., human tumor xenograft regression assays. Animals bearing established tumors are treated with a test compound for a three-week period. The growth of the tumors and the general health of the animal are monitored during the three-week treatment and for two more weeks after treatment to determine if tumor regrowth occurs. See Example 150 below.
(§1) From the in vitro results obtained, cyanoguanidine compounds were selected for human tumor xenograft regression assays. Animals bearing established tumors (RL) were treated with a test compound for a three-week period. The growth of the tumors and the general health of the animals were monitored during the treatment and for an additional two weeks after dosing had been terminated to determine if tumor regrowth took place.
(§2) Non-Hodgkin's B cell lymphoma (RL) tumor cells, which were adapted to grow as solid tumors, were implanted by an intradermal injection of a tumor cell suspension (30×10^6 cells in 0. 1 mL media) in the flanks of female NIH Swiss nude mice (Taconic Labs). Each mouse was implanted with one tumor and 6-8 mice per group were used.
(§3) Dosing was initiated one week after implantation (Day 1), when tumors reached approximately 50 to 100 mm^3 in volume, with a test compound or vehicle five times per week for three weeks either intravenously (IV) or intraperitoneally (IP). Cyclophosphamide (CTX, Sigma) was used as a standard in the assays. Compounds were first dissolved in DMSO (Sigma) and formulated with 20% Cremophor RH40 (BASF) to a final concentration of 10% DMSO/18% Cremophor. The formulated solution was made fresh daily.
(§4) Tumors, assumed to be hemi-ellipsoid in shape, were measured with calipers in three dimensions. Tumor volumes were calculated using the equation:
(§5) where L=length, W=width, and H=height of the tumor. Animals were weighed and their general health was monitored during the course of the assay. When tumors became necrotic or if animals became moribund, the animals were euthanized by CO2 asphyxiation. Student's t test was used to determine if there was a significant difference between the data obtained in the compound treated group and the vehicle treated group.
In a preliminary RL tumor growth regression assay, eight compounds were administered twice a day (via IV route in the morning and IP route in the afternoon) for five days per week for a three-week period. […] For comparison, cyclophosphamide, reduced the average tumor volume to 2% of control by Day 18. […] Compounds SBR-11-2899 (75 mg/kg), SBR-11-2750 (75 mg/kg), and SBR-11-2749 (75 mg/kg) reduced the average tumor volume to 10%, 14%, and 18% of the tumor volume obtained in the control on Day 21, respectively. One compound, SBR-11-4483 (60 mg/kg) was administered once per day (via IV route) for a two-week period. By day 19, a reduction of the average tumor volume to 1% was observed.

For data set [2] the test system is unchanged. The data set can be described thus: RL tumor growth regression assay, dose dependence. As to conditions: for weight loss: all mice except one CTX-treated mouse; for effect on tumor volume (in words): three doses. It counts as in vivo. The method, then:
as §1, §2, §3, §4, §5
The ability of compounds to act in a dose dependent manner was assayed in an RL tumor growth regression assay using compounds SBR-11-2897 and SBR-11-2780.

The test system of data set [3] is tumor cell line (PC-3) versus normal cell line (CV-1). The data set can be described thus: Tumor cell selectivity: IC50 normal cell line (CV-1) versus tumor cell line (PC-3). The format is cell-based, human (PC-3); monkey (CV-1, transformed monkey kidney cells). The following applies: CV-1 normal cell line vs PC-3 tumor cell line. How it is done:
The antitumor activity of a cyanoguanidine compound of this invention can be evaluated by MTS colorimetric assay (see Example 149 below). Results obtained by using cell lines of various types of tumors are compared with those obtained by using cell lines of normal cells in this assay. Viability of the cells in each cell line is estimated by measuring the cellular conversion of a tetrazolium salt after incubating the cells in a solution containing a test cyanoguanidine compound in a 96 well plate. IC50 values obtained by using an identical test compound on normal cells and cells of a particular tumor cell line are compared and their ratio (IC50 normal cell /IC50 cancer cell) indicates the cancer selectivity of that test compound. The higher the ratio, the higher the selectivity of the test compound towards that particular type of cancer cell.
In the secondary screening, IC50 values were determined. Cells were seeded at a low cell density in 96 well flat-bottom plates and incubated for 24 hours at 37° C. in a 7% CO2 atmosphere. […]

[4] abbreviates: twice a day IV + IP, 5 days/week, 3 weeks, 2780 75, 2889 90, 2897 75, 2900 60 mg/kg.
The mark [5] stands for this setting: twice a day IV + IP, 5 days/week, 3 weeks.

Turning to `N#CN=C(NCc1ccc(NC(=O)c2ccccc2Cc2ccccc2)cc1)Nc1ccncc1` [SBR-11-2750, 2-Benzyl-N-(4-(N'-cyano-N"-pyridin-4-yl-guanidinomethyl)-phenyl)-benzamide], in data set [1] (twice a day IV + IP), the “average tumor volume, % of tumor volume obtained in the control” value (“average tumor volume, % … in the control” for short) was found to be 14%.
Turning to `N#CNC(=Nc1ccncc1)NCCN1CCC(OC(c2ccccc2)c2ccccc2)CC1` [SBR-11-4483, N-[2-(4-Benzhydryloxy-piperidin-1-yl)-ethyl]-N'-cyano-N"-pyridin-4-yl-guanidine], the weight loss entry in data set [1] (60 mg/kg once per day IV, two weeks) is reported as “less than 10%”. Further, the “reduction of the average tumor volume to” value in data set [1] (by day 19, 60 mg/kg once per day IV, two weeks) was determined as 1%.
On to `Cc1c(C)c2c(c(C)c1O)CCC(C)(C(=O)Nc1ccc(CNC(=NC#N)Nc3ccncc3)cc1)O2` (stereo not shown) [SBR-11-2780, 6-Hydroxy-2,5,7,8-tetramethyl-chroman-2-carboxylic acid (4-(N'-cyano-N"-pyridin-4-yl-guanidinomethyl)-phenyl)-amide], for which the weight loss entry in data set [1] (setting [4]) was “less than 10%”; in data set [2], “Less than 10%”. Further, the gross toxicity entry in data set [1] (setting [5]) is on record as “little gross toxicity”. In addition, in data set [1] (5 days/week), the tumor regression result is given as “completely regressed all tumors”. Moreover, the figures for the “average tumor volume, % of control group” value in data set [2] (20 mg/kg), in data set [2] (40 mg/kg) and in data set [2] (80 mg/kg) were 86%, 24% and 3%, respectively. Besides, the “effect on tumor volume (in words)” value in data set [2] is on record as “dose dependent effect”.
Turning to `N#CN=C(NCc1ccc(NS(=O)(=O)c2cccc(C(F)(F)F)c2)cc1)Nc1ccncc1` [SBR-11-2899, N-(4-(N'-Cyano-N"-pyridin-4-yl-guanidinomethyl)-phenyl)-3-trifluoromethyl-benzenesulfonamide], the “average tumor volume, % … in the control” value in data set [1] (twice a day IV + IP) worked out at 10%.
`N#CN=C(NCc1ccc(NS(=O)(=O)c2cccc3ccccc23)cc1)Nc1ccncc1` [SBR-11-2900, Naphthalene-1-sulfonic acid (4-(N'-cyano-N"-pyridin-4-yl-guanidinomethyl)-phenyl)-amide]: the weight loss result in data set [1] (setting [4]) was “less than 10%”. In data set [1] (setting [5]), the gross toxicity result is “little gross toxicity”. In addition, the tumor regression entry in data set [1] (5 days/week) is listed as “completely regressed all tumors”.
Take `CC(=O)O[C@H]1C(=O)[C@@]2(C)[C@H]([C@H](OC(=O)c3ccccc3)[C@]3(O)C[C@H](OC(=O)[C@H](O)[C@@H](NC(=O)c4ccccc4)c4ccccc4)C(C)=C1C3(C)C)[C@]1(OC(C)=O)CO[C@@H]1C[C@@H]2O` [Taxol]: the “selectivity of tumor cells (IC50 normal cell /IC50 cancer cell)” value in data set [3] stood at 20 fold.
As to `O=P1(N(CCCl)CCCl)NCCCO1` (stereo not shown) [cyclophosphamide, Cyclophosphamide, reference compound], the “average tumor volume, % of control” value in data set [1] (by Day 18, cyclophosphamide standard) amounted to 2%.
As to `N#CN=C(NCc1ccc(NC(=O)C2c3ccccc3-c3ccccc32)cc1)Nc1ccncc1` [SBR-11-2727, 9H-fluorene-9-carboxylic acid (4-(N'-cyano-N"-pyridin-4-yl-guanidinomethyl)-phenyl)-amide], the gross toxicity entry in data set [1] (setting [5]) was “signs of gross toxicity within the first week”. Besides, the tumor regression entry in data set [1] (5 days/week) was “completely regressed all tumors”.
For `CN(C)c1cccc2c(S(=O)(=O)Nc3ccc(CNC(=NC#N)Nc4ccncc4)cc3)cccc12` [SBR-11-2897, 5-Dimethylamino-naphthalene-1-sulfonic acid (4-(N'-cyano-N"-pyridin-4-yl-guanidinomethyl)-phenyl)-amide], the weight loss entry in data set [1] (setting [4]) is given as “less than 10%”. The gross toxicity result in data set [1] (setting [5]) is “little gross toxicity”. The tumor regression entry in data set [1] (5 days/week) is recorded as “completely regressed all tumors”. In data set [2], the weight loss result is on record as “Less than 10%” and the “effect on tumor volume (in words)” value is listed as “almost complete reduction of average tumor volumes”.
Turning to `Cc1cc(C)c(S(=O)(=O)Nc2ccc(CNC(=NC#N)Nc3ccncc3)cc2)c(C)c1` [SBR-11-2889, 2,4,6-Trimethyl-N-(4-(N'-cyano-N"-pyridin-4-yl-guanidinomethyl)-phenyl)-benzenesulfonamide], in data set [1] (setting [4]), the weight loss entry was “less than 10%”. In addition, the gross toxicity result in data set [1] (setting [5]) is “little gross toxicity”. For the same compound, the tumor regression entry in data set [1] (5 days/week) is given as “completely regressed all tumors”.
Take `COc1ccc2cc(C(C)C(=O)Nc3ccc(CNC(=NC#N)Nc4ccncc4)cc3)ccc2c1` (stereo not shown) [SBR-11-2749, 2-(6-Methoxy-naphthalen-2-yl)-N-(4-(N'-cyano-N"-pyridin-4-yl-guanidinomethyl)-phenyl)-propionamide]: the “average tumor volume, % … in the control” value in data set [1] (twice a day IV + IP) amounted to 18%.
